Numbered stars: 1 amine (or outer) side, 2 acyl side, 3 side chain; on linkers, the order of the positions; unused ones are H or OH. Square brackets hold non-standard residues; d marks the D form. Peptide text beside a SMILES is read from it. * marks the point of attachment. Phe(4-Cl) = N[C@@H](Cc1ccc(Cl)cc1)C(=O)O; X7 = N[C@@H]1CCN([*:1])[C@@H]1C(=O)[*:2]; Phe(4-F) = N[C@@H](Cc1ccc(F)cc1)C(=O)O; Pro(4R-NH2) = N[C@H]1CN[C@H](C(=O)O)C1; dOrn(Me2) = CN(C)CCC[C@@H](N)C(=O)O; X2 = O=C([C@H]1CCCN([*:1])C1)[*:2]; dDap(Me2) = CN(C)C[C@@H](N)C(=O)O; Hyp = O=C(O)[C@@H]1C[C@@H](O)CN1; NHcycloheptyl = C1CCCC(N*)CC1; NMeL = CN[C@@H](CC(C)C)C(=O)O; Octanoyl = CCCCCCCC(=O)*; Thz = O=C(O)[C@@H]1CSCN1
The compounds below were run against T1, NPR-B (Homo sapiens, UniProt P20594) (assay: NPR-B induced production of cyclic GMP in human glaucoma trabecular meshwork cells (GTM-3)). Settings: not given.
T1 construct: a functional assay using endogenously NPR-B expressing GTM-3 cells; endogenous in cells; host or cells: GTM-3 (human glaucoma trabecular meshwork cells)
T1 sequence (P20594 23-1047): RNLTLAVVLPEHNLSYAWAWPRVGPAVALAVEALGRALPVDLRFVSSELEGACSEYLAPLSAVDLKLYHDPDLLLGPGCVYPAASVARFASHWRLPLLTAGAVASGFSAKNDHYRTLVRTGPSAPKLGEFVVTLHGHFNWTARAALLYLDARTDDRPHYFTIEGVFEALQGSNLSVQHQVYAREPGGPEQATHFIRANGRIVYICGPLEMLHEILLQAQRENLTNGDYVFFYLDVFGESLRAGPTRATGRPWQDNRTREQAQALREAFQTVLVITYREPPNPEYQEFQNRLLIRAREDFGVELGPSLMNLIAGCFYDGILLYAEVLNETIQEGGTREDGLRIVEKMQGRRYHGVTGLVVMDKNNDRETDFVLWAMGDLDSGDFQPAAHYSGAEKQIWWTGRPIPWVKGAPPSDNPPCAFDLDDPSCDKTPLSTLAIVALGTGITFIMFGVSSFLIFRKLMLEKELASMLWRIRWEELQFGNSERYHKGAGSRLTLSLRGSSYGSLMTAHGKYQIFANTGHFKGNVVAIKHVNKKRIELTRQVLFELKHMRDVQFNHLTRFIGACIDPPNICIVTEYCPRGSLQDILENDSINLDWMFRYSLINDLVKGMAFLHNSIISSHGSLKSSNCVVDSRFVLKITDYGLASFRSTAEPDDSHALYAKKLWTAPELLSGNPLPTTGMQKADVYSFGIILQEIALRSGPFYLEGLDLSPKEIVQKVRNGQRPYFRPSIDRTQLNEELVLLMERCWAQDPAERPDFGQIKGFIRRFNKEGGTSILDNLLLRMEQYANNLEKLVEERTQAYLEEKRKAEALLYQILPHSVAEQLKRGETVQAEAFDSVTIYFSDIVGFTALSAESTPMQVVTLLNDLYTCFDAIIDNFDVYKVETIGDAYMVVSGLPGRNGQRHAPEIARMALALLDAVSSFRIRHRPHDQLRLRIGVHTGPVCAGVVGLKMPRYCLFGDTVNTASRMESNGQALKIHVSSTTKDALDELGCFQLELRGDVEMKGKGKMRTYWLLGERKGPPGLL
Format: cell-based

SMILES | EC50
CCCCCCCC(=O)N[C@H](C)C(=O)N[C@@H](Cc1ccccc1)C(=O)NCC(=O)N[C@@H](CC(C)C)C(=O)N1C[C@H](N)C[C@H]1C(=O)N[C@@H](CC(C)C)C(=O)N[C@@H](CC(=O)O)C(=O)N[C@@H](CCCNC(=N)N)C(=O)N[C@H](C(N)=O)[C@@H](C)CC [JAL-1249, Occ-ala-Phe-Gly-Leu-Tap-Leu-Asp-Arg-Ile-NH2] (HELM PEPTIDE1{[CCCCCCCC(=O)[*:2]].[dA].F.G.L.[N[C@@H]1C[C@@H](C(=O)[*:2])N([*:1])C1].L.D.R.I.[am]}$$$$V2.0) | < 1000 nM

Same assay, conditions: group by EC50 and Emax (CNP = 100%); Table 4; read-out: Activity (group), NPR-B activation assayed with GTM-3 cells

SMILES | EC50
CCCCCCCC(=O)N[C@H](C)C(=O)N[C@@H](Cc1ccccc1)C(=O)N[C@H](CCCNC(=N)N)C(=O)N[C@@H](CC(C)C)C(=O)N1C[C@H](O)C[C@H]1C(=O)N(C)C(CC(C)(C)C)C(=O)N[C@@H](CC(=O)O)C(=O)N[C@@H](CCCNC(=N)N)C(=O)N[C@H](C(N)=O)[C@@H](C)CC (stereo partly drawn) [JAL-1284, Occ-ala-Phe-arg-Leu-Hyp-(SH-158)-Asp-Arg-Ile-NH2] (HELM PEPTIDE1{[CCCCCCCC(=O)[*:2]].[dA].F.[dR].L.[Hyp].[CN(C(CC(C)(C)C)C(=O)[*:2])[*:1]].D.R.I.[am]}$$$$V2.0) | < 1000 nM
CCCCCCCC(=O)N[C@H](C)C(=O)N[C@@H](Cc1ccccc1)C(=O)N[C@H](CC(C)C)C(=O)N[C@@H](CC(C)C)C(=O)N1C[C@H](O)C[C@H]1C(=O)N(C)[C@@H](CC(C)C)C(=O)N[C@@H](CC(=O)O)C(=O)N(C)[C@@H](CCCNC(=N)N)C(=O)N[C@H](C(N)=O)[C@@H](C)CC [JAL-1417, Occ-ala-Phe-leu-Leu-Hyp-Nml-Asp-Nmr-Ile-NH2] (HELM PEPTIDE1{[CCCCCCCC(=O)[*:2]].[dA].F.[dL].L.[Hyp].[meL].D.[meR].I.[am]}$$$$V2.0) | < 1000 nM
CCCCCCCC(=O)N1CCC[C@H](C(=O)N[C@@H](Cc2ccccc2)C(=O)N[C@H](CC(C)C)C(=O)N[C@@H](CC(C)C)C(=O)N2C[C@H](O)C[C@H]2C(=O)N(C)[C@@H](CC(C)C)C(=O)N[C@@H](CC(=O)O)C(=O)N2CSC[C@H]2C(=O)NC2CCCCCC2)C1 [JAL-1638, Occ-Sni-Phe-leu-Leu-Hyp-Nml-Asp-Eaz-Che] (Octanoyl-[X2]F[dL]L[Hyp][NMeL]D[Thz]-NHcycloheptyl) | < 1000 nM
CCCCCCCC(=O)OC(C)C(=O)N[C@@H](Cc1ccccc1)C(=O)N[C@H](CC(C)C)C(=O)N[C@@H](CC(C)C)C(=O)N1C[C@H](O)C[C@H]1C(=O)N(C)[C@@H](CC(C)C)C(=O)N[C@@H](CC(=O)O)C(=O)N[C@@H](CCCNC(=N)N)C(=O)N[C@H](C(N)=O)[C@@H](C)CC (stereo partly drawn) [JAL-1294, (AR-201-49)-Phe-leu-Leu-Hyp-Nml-Asp-Arg-Ile-NH2] (HELM PEPTIDE1{[CCCCCCCC(=O)[*:2]].[CC(O[*:1])C(=O)[*:2]].F.[dL].L.[Hyp].[meL].D.R.I.[am]}$$$$V2.0) | < 1000 nM
CCCCCCCC(=O)N1CCC[C@H](C(=O)N[C@@H](Cc2ccc(F)cc2)C(=O)N[C@H](CC(C)C)C(=O)N[C@@H](CC(C)C)C(=O)N2C[C@H](O)C[C@H]2C(=O)N(C)[C@@H](CC(C)C)C(=O)N[C@@H](CC(=O)O)C(=O)N[C@@H](CCCNC(=N)N)C(=O)N[C@H](C(N)=O)[C@@H](C)CC)C1 [JAL-1487, Occ-Sni-Pff-leu-Leu-Hyp-Nml-Asp-Arg-Ile-NH2] (Octanoyl-[X2][Phe(4-F)][dL]L[Hyp][NMeL]DRI-NH2) | < 1000 nM
CCCCCCCC(=O)N1CCC[C@H](C(=O)N[C@@H](Cc2ccc(Cl)cc2)C(=O)N[C@H](CC(C)C)C(=O)N[C@@H](CC(C)C)C(=O)N2C[C@H](O)C[C@H]2C(=O)N(C)[C@@H](CC(C)C)C(=O)N[C@@H](CC(=O)O)C(=O)N[C@@H](CCCNC(=N)N)C(=O)N[C@H](C(N)=O)[C@@H](C)CC)C1 [JAL-1493, Occ-Sni-Pcf-leu-Leu-Hyp-Nml-Asp-Arg-Ile-NH2] (Octanoyl-[X2][Phe(4-Cl)][dL]L[Hyp][NMeL]DRI-NH2) | < 1000 nM
CCCCCCCC(=O)N[C@H]1CCN([C@@H](Cc2ccccc2)C(=O)N[C@H](CC(C)C)C(=O)N[C@@H](CC(C)C)C(=O)N2C[C@H](O)C[C@H]2C(=O)N(C)[C@@H](CC(C)C)C(=O)N[C@@H](CC(=O)O)C(=O)N[C@@H](CCCNC(=N)N)C(=O)N[C@H](C(N)=O)[C@@H](C)CC)C1=O [JAL-1671, Occ-(AFL)-leu-Leu-Hyp-Nml-Asp-Arg-Ile-NH2] | < 1000 nM
CCCCCCCC(=O)N1CCC[C@H](C(=O)N[C@@H](Cc2ccccc2)C(=O)N[C@H](CC(C)C)C(=O)N[C@@H](CC(C)C)C(=O)N2C[C@H](O)C[C@H]2C(=O)N(C)[C@@H](CC(C)C)C(=O)N[C@@H](CC(=O)O)C(=O)N2CC[C@@H](N)[C@H]2C(=O)NC2CCCCCC2)C1 [JAL-1679, Occ-Sni-Phe-leu-Leu-Hyp-Nml-Asp-Pca-Che] (Octanoyl-[X2]F[dL]L[Hyp][NMeL]D[X7]-NHcycloheptyl) | < 1000 nM
CCCCCCCC(=O)N1CCC[C@H](C(=O)N[C@@H](Cc2ccccc2)C(=O)N[C@H](CCCNC(=N)N)C(=O)N[C@@H](CC(C)C)C(=O)N2C[C@H](N)C[C@H]2C(=O)N(C)[C@@H](CC(C)C)C(=O)N[C@@H](CC(=O)O)C(=O)N[C@@H](CCCNC(=N)N)C(=O)N[C@H](C(N)=O)[C@@H](C)CC)C1 [JAL-1317, Occ-Sni-Phe-arg-Leu-Tap-Nml-Asp-Arg-Ile-NH2] (Octanoyl-[X2]F[dR]L[Pro(4R-NH2)][NMeL]DRI-NH2) | < 1000 nM
CCCCCCCC(=O)N[C@H](C)C(=O)N[C@@H](Cc1ccccc1)C(=O)N[C@H](CC(C)C)C(=O)N[C@@H](CC(C)C)C(=O)N1C[C@H](N)C[C@H]1C(=O)N(C)[C@@H](CC(C)C)C(=O)N[C@@H](CC(=O)O)C(=O)N[C@@H](CCCNC(=N)N)C(=O)N[C@H](C(N)=O)[C@@H](C)CC [JAL-1296, Occ-ala-Phe-leu-Leu-Tap-Nml-Asp-Arg-Ile-NH2] (HELM PEPTIDE1{[CCCCCCCC(=O)[*:2]].[dA].F.[dL].L.[N[C@@H]1C[C@@H](C(=O)[*:2])N([*:1])C1].[meL].D.R.I.[am]}$$$$V2.0) | < 1000 nM
CCCCCCCC(=O)N1CCC[C@H](C(=O)N[C@@H](Cc2ccccc2)C(=O)N[C@H](CC(C)C)C(=O)N[C@@H](CCCC)C(=O)N2C[C@H](O)C[C@H]2C(=O)N(C)[C@@H](CC(C)C)C(=O)N[C@@H](CC(=O)O)C(=O)N[C@@H](CCCNC(=N)N)C(=O)N[C@H](C(N)=O)[C@@H](C)CC)C1 [JAL-1624, Occ-Sni-Phe-leu-Nle-Hyp-Nml-Asp-Arg-Ile-NH2] (HELM PEPTIDE1{[CCCCCCCC(=O)[*:2]].[O=C([C@H]1CCCN([*:1])C1)[*:2]].F.[dL].[Nle].[Hyp].[meL].D.R.I.[am]}$$$$V2.0) | < 1000 nM
CCCCCCCC(=O)N1CCC[C@H](C(=O)N[C@@H](Cc2ccccc2)C(=O)N[C@H](CC(C)C)C(=O)N[C@@H](CC(C)C)C(=O)N2CCC[C@H]2C(=O)N(C)[C@@H](CC(C)C)C(=O)N[C@@H](CC(=O)O)C(=O)N[C@@H](CCCNC(=N)N)C(=O)N[C@H](C(N)=O)[C@@H](C)CC)C1 [JAL-1040, Occ-Sni-Phe-leu-Leu-Pro-Nml-Asp-Arg-Ile-NH2] (HELM PEPTIDE1{[CCCCCCCC(=O)[*:2]].[O=C([C@H]1CCCN([*:1])C1)[*:2]].F.[dL].L.P.[meL].D.R.I.[am]}$$$$V2.0) | < 1000 nM
CCCCCCCC(=O)N1CCC[C@H](C(=O)N[C@@H](Cc2ccccc2)C(=O)N[C@H](CCCN(C)C)C(=O)N[C@@H](CC(C)C)C(=O)N2C[C@H](N)C[C@H]2C(=O)N(C)[C@@H](CC(C)C)C(=O)N[C@@H](CC(=O)O)C(=O)N[C@@H](CCCNC(=N)N)C(=O)N[C@H](C(N)=O)[C@@H](C)CC)C1 [JAL-1936, Occ-Sni-Phe-orn(Me2)-Leu-Tap-Nml-Asp-Arg-Ile-NH2] (Octanoyl-[X2]F[dOrn(Me2)]L[Pro(4R-NH2)][NMeL]DRI-NH2) | < 1000 nM
CCCCCCCC(=O)N1CCC[C@H](C(=O)N[C@@H](Cc2ccccc2)C(=O)N[C@H](CN(C)C)C(=O)N[C@@H](CC(C)C)C(=O)N2C[C@H](O)C[C@H]2C(=O)N(C)[C@@H](CC(C)C)C(=O)N[C@@H](CC(=O)O)C(=O)N2CCC[C@H]2C(=O)NC2CCCCCC2)C1 [JAL-1604, Occ-Sni-Phe-dap(Me2)-Leu-Hyp-Nml-Asp-Pro-Che] (Octanoyl-[X2]F[dDap(Me2)]L[Hyp][NMeL]DP-NHcycloheptyl) | < 1000 nM
CCCCCCCC(=O)N[C@H](C)C(=O)N[C@@H](Cc1ccccc1)C(=O)N[C@H](CCCC)C(=O)N[C@@H](CC(C)C)C(=O)N1C[C@H](O)C[C@H]1C(=O)N(C)[C@@H](CC(C)C)C(=O)N[C@@H](CC(=O)O)C(=O)N[C@@H](CCCNC(=N)N)C(=O)N[C@H](C(N)=O)[C@@H](C)CC [JAL-1044, Occ-ala-Phe-nle-Leu-Hyp-Nml-Asp-Arg-Ile-NH2] (HELM PEPTIDE1{[CCCCCCCC(=O)[*:2]].[dA].F.[CCCC[C@@H](N[*:1])C(=O)[*:2]].L.[Hyp].[meL].D.R.I.[am]}$$$$V2.0) | < 1000 nM

From patent US9822147B2, “Methods of treating ophthalmic diseases using NPR-B agonists” (priority 2009, dated 2017)
